Laboratory results taken from patent US11672251B2, “Herbicidally active pyridyl-/pyrimidyl-pyrimidine derivatives” (Syngenta Participations AG, priority 2017, dated 2023).

What was measured:
Format in all cases: in vivo
[1] = test system: Abutilon theophrasti (ABUTH); experiment: B1 pre-emergence herbicidal activity; details: Test 1a, rate 1000 g/ha, evaluated after 13 days, scale 5=total damage to plant, 0=no damage to plant
Experimental: (§1) Seeds of a variety of test species were sown in standard soil in pots: Triticum aestivium (TRZAW), Avena fatua (AVEFA), Alopecurus myosuroides (ALOMY), Echinochloa crus-galli (ECHCG), Lolium perenne (LOLPE), Zea Mays (ZEAMX), Abutilon theophrasti (ABUTH), Amaranthus retroflexus (AMARE) and Setaria faberi (SETFA). After cultivation for one day (pre-emergence) under controlled conditions in a glasshouse (at 24/16° C., day/night; 14 hours light; 65% humidity), the plants were sprayed with an aqueous spray solution derived from the formulation of the technical active ingredient in acetone/water (50:50) solution containing 0.5% Tween 20 (polyoxyethelyene sorbitan monolaurate, CAS RN 9005-64-5). The test plants were then grown in a glasshouse under controlled conditions (at 24/16° C., day/night; 14 hours light; 65% humidity) and watered twice daily. After 13 days, the test was evaluated (5=total damage to plant; 0=no damage to plant).

[2] = test system: Amaranthus retroflexus (AMARE); experiment: B1 pre-emergence herbicidal activity; details: Test 1a, rate 1000 g/ha, evaluated after 13 days, scale 5=total damage to plant, 0=no damage to plant
Experimental: as §1

[3] = test system: Echinochloa crus-galli (ECHCG); experiment: B1 pre-emergence herbicidal activity; details: rate 1000 g/ha, evaluated after 13 days, scale 5=total damage to plant, 0=no damage to plant
Experimental: as §1

Lolium perenne (LOLPE) [4] = experiment: B1 pre-emergence herbicidal activity; details: rate 1000 g/ha, evaluated after 13 days, scale 5=total damage to plant, 0=no damage to plant
Experimental: as §1

Setaria faberi (SETFA) [5] = experiment: B1 pre-emergence herbicidal activity; details: rate 1000 g/ha, evaluated after 13 days, scale 5=total damage to plant, 0=no damage to plant
Experimental: as §1

Zea Mays (ZEAMX) [6] = experiment: B1 pre-emergence herbicidal activity; details: Test 1a, rate 1000 g/ha, evaluated after 13 days, scale 5=total damage to plant, 0=no damage to plant
Experimental: as §1

[7] = test system: Abutilon theophrasti (ABUTH); experiment: B2 post-emergence herbicidal activity; details: Test B2a; post-emergence (sprayed after 8 days cultivation); rate 1000 g/ha; evaluated after 13 days; scale 5=total damage to plant, 0=no damage to plant
Experimental: (§2) Seeds of a variety of test species were sown in standard soil in pots: Triticum aestivium (TRZAW), Avena fatua (AVEFA), Alopecurus myosuroides (ALOMY), Echinochloa crus-galli (ECHCG), Lolium perenne (LOLPE), Zea Mays (ZEAMX), Abutilon theophrasti (ABUTH), Amaranthus retroflexus (AMARE) and Setaria faberi (SETFA). After 8 days cultivation (post-emergence) under controlled conditions in a glasshouse (at 24/16° C., day/night; 14 hours light; 65% humidity), the plants were sprayed with an aqueous spray solution derived from the formulation of the technical active ingredient in acetone/water (50:50) solution containing 0.5% Tween 20 (polyoxyethelyene sorbitan monolaurate, CAS RN 9005-64-5). The test plants were then grown in a glasshouse under controlled conditions (at 24/16° C., day/night; 14 hours light; 65% humidity) and watered twice daily. After 13 days, the test was evaluated (5=total damage to plant; 0=no damage to plant).

[8] = test system: Amaranthus retroflexus (AMARE); experiment: B2 post-emergence herbicidal activity; details: Test B2a; post-emergence (sprayed after 8 days cultivation); rate 1000 g/ha; evaluated after 13 days; scale 5=total damage to plant, 0=no damage to plant
Experimental: as §2

[9] = test system: Echinochloa crus-galli (ECHCG); experiment: B2 post-emergence herbicidal activity; details: post-emergence (sprayed after 8 days cultivation), rate 1000 g/ha, evaluated after 13 days, scale 5=total damage to plant, 0=no damage to plant
Experimental: as §2

Lolium perenne (LOLPE) [10] = experiment: B2 post-emergence herbicidal activity; details: post-emergence (sprayed after 8 days cultivation), rate 1000 g/ha, evaluated after 13 days, scale 5=total damage to plant, 0=no damage to plant
Experimental: as §2

Setaria faberi (SETFA) [11] = experiment: B2 post-emergence herbicidal activity; details: post-emergence (sprayed after 8 days cultivation), rate 1000 g/ha, evaluated after 13 days, scale 5=total damage to plant, 0=no damage to plant
Experimental: as §2

Zea Mays (ZEAMX) [12] = experiment: B2 post-emergence herbicidal activity; details: Test B2a; post-emergence (sprayed after 8 days cultivation); rate 1000 g/ha; evaluated after 13 days; scale 5=total damage to plant, 0=no damage to plant
Experimental: as §2

[13] = test system: Alopecurus myosuroides (ALOMY); experiment: B1 pre-emergence herbicidal activity; details: Test 1b, rate 1000 g/ha, evaluated after 13 days, scale 5=total damage to plant, 0=no damage to plant
Experimental: as §1

Avena fatua (AVEFA) [14] = experiment: B1 pre-emergence herbicidal activity; details: Test 1b, rate 1000 g/ha, evaluated after 13 days, scale 5=total damage to plant, 0=no damage to plant
Experimental: as §1

[15] = test system: Triticum aestivium (TRZAW); experiment: B1 pre-emergence herbicidal activity; details: Test 1b, rate 1000 g/ha, evaluated after 13 days, scale 5=total damage to plant, 0=no damage to plant
Experimental: as §1

[16] = test system: Alopecurus myosuroides (ALOMY); experiment: B2 post-emergence herbicidal activity; details: Test B2b; post-emergence (sprayed after 8 days cultivation); rate 1000 g/ha; evaluated after 13 days; scale 5=total damage to plant, 0=no damage to plant
Experimental: as §2

Avena fatua (AVEFA) [17] = experiment: B2 post-emergence herbicidal activity; details: Test B2b; post-emergence (sprayed after 8 days cultivation); rate 1000 g/ha; evaluated after 13 days; scale 5=total damage to plant, 0=no damage to plant
Experimental: as §2

[18] = test system: Triticum aestivium (TRZAW); experiment: B2 post-emergence herbicidal activity; details: Test B2b; post-emergence (sprayed after 8 days cultivation); rate 1000 g/ha; evaluated after 13 days; scale 5=total damage to plant, 0=no damage to plant
Experimental: as §2

CNc1cnc(-c2cncc(F)c2)nc1C [Compound D1, 2-(5-fluoro-3-pyridyl)-N,4-dimethyl-pyrimidin-5-amine]
Control after pre-emergence application, damage score: ABUTH [1]: 1 | Control after pre-emergence application, damage score: AMARE [2]: 1 | Control after pre-emergence application, damage score: ECHCG ([3]; Test 1a): 1 | Control after pre-emergence application, damage score: LOLPE (Lolium perenne (LOLPE) [4]; Test 1a): 0 | Control after pre-emergence application, damage score: SETFA (Setaria faberi (SETFA) [5]; Test 1a): 3 | Control after pre-emergence application, damage score: ZEAMX (Zea Mays (ZEAMX) [6]): 0 | Control after post-emergence application, damage score: ABUTH [7]: 0 | Control after post-emergence application, damage score: AMARE [8]: 0 | Control after post-emergence application, damage score: ECHCG ([9]; Test B2a): 2 | Control after post-emergence application, damage score: LOLPE (Lolium perenne (LOLPE) [10]; Test B2a): 1 | Control after post-emergence application, damage score: SETFA (Setaria faberi (SETFA) [11]; Test B2a): 3 | Control after post-emergence application, damage score: ZEAMX (Zea Mays (ZEAMX) [12]): 1

Cc1nc(-c2cncc(F)c2)ncc1N [Compound D2, 2-(5-fluoro-3-pyridyl)-4-methyl-pyrimidin-5-amine]
Control after pre-emergence application, damage score: ABUTH [1]: 1 | Control after pre-emergence application, damage score: AMARE [2]: 1 | Control after pre-emergence application, damage score: ECHCG ([3]; Test 1a): 1 | Control after pre-emergence application, damage score: LOLPE (Lolium perenne (LOLPE) [4]; Test 1a): 0 | Control after pre-emergence application, damage score: SETFA (Setaria faberi (SETFA) [5]; Test 1a): 2 | Control after pre-emergence application, damage score: ZEAMX (Zea Mays (ZEAMX) [6]): 0 | Control after post-emergence application, damage score: ABUTH [7]: 1 | Control after post-emergence application, damage score: AMARE [8]: 1 | Control after post-emergence application, damage score: ECHCG ([9]; Test B2a): 2 | Control after post-emergence application, damage score: LOLPE (Lolium perenne (LOLPE) [10]; Test B2a): 1 | Control after post-emergence application, damage score: SETFA (Setaria faberi (SETFA) [11]; Test B2a): 3 | Control after post-emergence application, damage score: ZEAMX (Zea Mays (ZEAMX) [12]): 1

CCNc1cnc(-c2cncc(N)c2)nc1C(F)(F)F [Compound D11]
Control after pre-emergence application, damage score: ALOMY [13]: 0 | Control after pre-emergence application, damage score: AVEFA (Avena fatua (AVEFA) [14]): 0 | Control after pre-emergence application, damage score: ECHCG ([3]; Test 1b): 3 | Control after pre-emergence application, damage score: LOLPE (Lolium perenne (LOLPE) [4]; Test 1b): 0 | Control after pre-emergence application, damage score: SETFA (Setaria faberi (SETFA) [5]; Test 1b): 5 | Control after pre-emergence application, damage score: TRAZW [15]: 0 | Control after post-emergence application, damage score: ALOMY [16]: 1 | Control after post-emergence application, damage score: AVEFA (Avena fatua (AVEFA) [17]): 2 | Control after post-emergence application, damage score: ECHCG ([9]; Test B2b): 5 | Control after post-emergence application, damage score: LOLPE (Lolium perenne (LOLPE) [10]; Test B2b): 1 | Control after post-emergence application, damage score: SETFA (Setaria faberi (SETFA) [11]; Test B2b): 5 | Control after post-emergence application, damage score: TRAZW [18]: 1

CCN(CC)c1cnc(-c2cncc(F)c2)nc1C(F)(F)F [Compound D12]
Control after pre-emergence application, damage score: ALOMY [13]: 0 | Control after pre-emergence application, damage score: AVEFA (Avena fatua (AVEFA) [14]): 0 | Control after pre-emergence application, damage score: ECHCG ([3]; Test 1b): 1 | Control after pre-emergence application, damage score: LOLPE (Lolium perenne (LOLPE) [4]; Test 1b): 0 | Control after pre-emergence application, damage score: SETFA (Setaria faberi (SETFA) [5]; Test 1b): 5 | Control after pre-emergence application, damage score: TRAZW [15]: 0 | Control after post-emergence application, damage score: ALOMY [16]: 0 | Control after post-emergence application, damage score: AVEFA (Avena fatua (AVEFA) [17]): 3 | Control after post-emergence application, damage score: ECHCG ([9]; Test B2b): 5 | Control after post-emergence application, damage score: LOLPE (Lolium perenne (LOLPE) [10]; Test B2b): 2 | Control after post-emergence application, damage score: SETFA (Setaria faberi (SETFA) [11]; Test B2b): 5 | Control after post-emergence application, damage score: TRAZW [18]: 1

CCCNc1cnc(-c2cncc(F)c2)nc1C(F)(F)F [Compound D13, 2-(5-fluoro-3-pyridyl)-N-propyl-4-(trifluoromethyl)pyrimidin-5-amine]
Control after pre-emergence application, damage score: ALOMY [13]: 0 | Control after pre-emergence application, damage score: AVEFA (Avena fatua (AVEFA) [14]): 0 | Control after pre-emergence application, damage score: ECHCG ([3]; Test 1b): 1 | Control after pre-emergence application, damage score: LOLPE (Lolium perenne (LOLPE) [4]; Test 1b): 1 | Control after pre-emergence application, damage score: SETFA (Setaria faberi (SETFA) [5]; Test 1b): 2 | Control after pre-emergence application, damage score: TRAZW [15]: 1 | Control after post-emergence application, damage score: ALOMY [16]: 0 | Control after post-emergence application, damage score: AVEFA (Avena fatua (AVEFA) [17]): 3 | Control after post-emergence application, damage score: ECHCG ([9]; Test B2b): 4 | Control after post-emergence application, damage score: LOLPE (Lolium perenne (LOLPE) [10]; Test B2b): 1 | Control after post-emergence application, damage score: SETFA (Setaria faberi (SETFA) [11]; Test B2b): 4 | Control after post-emergence application, damage score: TRAZW [18]: 0

CCCN(CCC)c1cnc(-c2cncc(F)c2)nc1C(F)(F)F [Compound D14, 2-(5-fluoro-3-pyridyl)-N,N-dipropyl-4-(trifluoromethyl)pyrimidin-5-amine]
Control after pre-emergence application, damage score: ALOMY [13]: 1 | Control after pre-emergence application, damage score: AVEFA (Avena fatua (AVEFA) [14]): 0 | Control after pre-emergence application, damage score: ECHCG ([3]; Test 1b): 2 | Control after pre-emergence application, damage score: LOLPE (Lolium perenne (LOLPE) [4]; Test 1b): 1 | Control after pre-emergence application, damage score: SETFA (Setaria faberi (SETFA) [5]; Test 1b): 2 | Control after pre-emergence application, damage score: TRAZW [15]: 1 | Control after post-emergence application, damage score: ALOMY [16]: 1 | Control after post-emergence application, damage score: AVEFA (Avena fatua (AVEFA) [17]): 3 | Control after post-emergence application, damage score: ECHCG ([9]; Test B2b): 4 | Control after post-emergence application, damage score: LOLPE (Lolium perenne (LOLPE) [10]; Test B2b): 2 | Control after post-emergence application, damage score: SETFA (Setaria faberi (SETFA) [11]; Test B2b): 4 | Control after post-emergence application, damage score: TRAZW [18]: 0
